The text below walks through data of US4988497A, “Process for the optical determination of lipase” (Boehringer Mannheim GmbH, priority 1985, dated 1991).

A value given as a limit tells only on which side of the number the result lay.

The nature of data set [1]: blank change (water instead of sample). The format is physicochemical. Conditions: 100 μl water instead of sample; extinction change at 578 nm. The procedure: (§1) 1.2 g. Sodium desoxycholate and 0.15 mg. colipase (from the pig) are dissolved in 60 ml. distilled water, with stirring. A solution of 70 mg. of the lipase substrate 1,2-0-dioctyl-rac-glycero-3-azelaic acid resorufin ester (Example 4) in 1.7 ml. n-propanol are injected herein under pressure in the thinnest possible stream, with vigorous stirring. A solution which, in 200 ml. distilled water, contains 1.5 g. urea, 1 g. sodium desoxycholate, 200 mg. sodium chloride, 800 mg. TRIS and 107 mg. TRIS.HCl, is well mixed with the above-produced emulsion.
(§2) 2.5 ml. of the so produced solution are mixed with 100 μ. of sample (serum). The reaction is monitored photometrically at 578 nm Hg.
The blank change was determined with a reagent according to Example 1 and various lipase substrates. Instead of the sample, 100 μ1. water were added and the extinction change monitored photometrically at 578 nm (ΔmE/min.).

The subject of data set [2] is carboxyl esterase (EC 3.1.1.1). Description: esterase sensitivity. The format is biochemical. Conditions: for esterase sensitivity (activity 20,000 U/l): 100 μl carboxyl esterase about 20,000 U/l, 578 nm; for Esterase sensitivity: emulsion prepared as in Example 22. The method, then: as §1, §2
For the determination of the esterase sensitivity, instead of the sample there were added 100 μl. carboxyl esterase (EC 3.1.1.1; about 20,000 U/1. Boehringer Mannheim GmbH, Order No. 10 46 98) and the extinction change monitored as described above.

For data set [3], the system named is lipase (EC 3.1.1.3). Description: lipase sensitivity. The format is biochemical. Conditions: for lipase sensitivity (activity 100 U/l): 100 μl lipase about 100 U/l, 578 nm. The method, then:
as §1, §2
For the determination of the lipase sensitivity, instead of the sample there were added 100 μl. lipase (EC 3.1.1.3; about 100 U/1., Boehringer Mannheim GmbH, Order No. 41 45 90) and the extinction change monitored as described above.

Data set [4] can be described thus: blank change (water instead of sample). The format is physicochemical.
The subject of data set [5] is lipase (EC 3.1.1.3). The data set can be described thus: lipase sensitivity. It counts as biochemical.
Setting [6] is: emulsion prepared as in Example 22.
The mark [7] stands for this setting: taurodesoxycholate/TRIS reagent pH 7.5, 578 nm.
Setting [8] is: fluorometric, 25° C., excitation 364 nm, emission 448 nm.

Consider `CCCCCCOCC(COC(=O)CCCC(=O)Oc1ccc2nc3ccc(=O)cc-3oc2c1)OCCCCCC` (racemic) [Example 1, 1,2-O-Dihexyl-rac-glycero-3-glutaric acid resorufin ester], for which the blank in data set [1] is listed as 13.2 ΔmE/min. Further, in data set [2], the “esterase sensitivity (activity 20,000 U/l)” value is recorded as > 1000 ΔmE/min.
For `CCCCCCCCOCC(COC(=O)CCCC(=O)Oc1ccc2nc3ccc(=O)cc-3oc2c1)OCCCCCCCC` (racemic) [Example 2, 1,2-O-Dioctyl-rac-glycero-3-glutaric acid resorufin ester], the blank in data set [1] is 7.0 ΔmE/min. The “lipase sensitivity (activity 100 U/l)” value in the data set with lipase (EC 3.1.1.3) [3] was ~ 100 ΔmE/min. In addition, the “esterase sensitivity (activity 20,000 U/l)” value in data set [2] is recorded as 144.0 ΔmE/min.
The corresponding values for `CCCCCCCCOCC(COC(=O)CCCCCC(=O)Oc1ccc2nc3ccc(=O)cc-3oc2c1)OCCCCCCCC` (racemic) [Example 3, 1,2-O-dioctyl-rac-glycero-3-pimelic acid resorufin ester] are 3.9-4.1 ΔmE/min, 12.28 ΔmE/min and 112.5 ΔmE/min.
As for `CCCCCCCCOCC(COC(=O)CCCCCCCC(=O)Oc1ccc2nc3ccc(=O)cc-3oc2c1)OCCCCCCCC` (racemic) [Example 4, 1,2-O-dioctyl-rac-glycero-3-azelaic acid resorufin ester], the blank in data set [1] is reported as 0.4-0.8 ΔmE/min. Moreover, the “lipase sensitivity (activity 100 U/l)” value in the data set on lipase (EC 3.1.1.3) [3] is 18.04 ΔmE/min. Moreover, in data set [2], the “esterase sensitivity (activity 20,000 U/l)” value was 33.6 ΔmE/min.
On to `CCCCCCCCCCOCC(COC(=O)CCCC(=O)Oc1ccc2nc3ccc(=O)cc-3oc2c1)OCCCCCCCCCC` (racemic) [Example 5, 1,2-O-Didecyl-rac-glycero-3-glutaric acid resorufin ester], for which the blank in data set [1] is 2.4-3.0 ΔmE/min. The “lipase sensitivity (activity 100 U/l)” value with lipase (EC 3.1.1.3) [3] is 22.18 ΔmE/min. The “esterase sensitivity (activity 20,000 U/l)” value in data set [2] is on record as 30.2 ΔmE/min.
The matching figures for `CCCCCCCCCCCOCC(COC(=O)CCCC(=O)Oc1ccc2nc3ccc(=O)cc-3oc2c1)OCCCCCCCCCCC` (racemic) [Example 6, 1,2-O-Diundecyl-rac-glycero-3-glutaric acid resorufin ester]: 2.0-2.8 ΔmE/min, 6.96 ΔmE/min and 23.6 ΔmE/min.
The corresponding values for `CCCCCCCCCCCCOCC(COC(=O)CCCC(=O)Oc1ccc2nc3ccc(=O)cc-3oc2c1)OCCCCCCCCCCCC` (racemic) [Example 7, 1,2-O-Dilauryl-rac-glycero-3-glutaric acid resorufin ester] are 2.4-3.0 ΔmE/min, 10.9 ΔmE/min and 34.8 ΔmE/min.
The matching figures for `CCCCCCCCCCCCOCC(COC(=O)CCCCCC(=O)Oc1ccc2nc3ccc(=O)cc-3oc2c1)OCCCCCCCCCCCC` (racemic) [Example 8, 1,2-O-Dilauryl-rac-glycero-3-pimelic acid resorufin ester]: 2.1-2.4 ΔmE/min, 4.68 ΔmE/min and 27.8 ΔmE/min.
`CCCCCCCCCCOCC(COC(=O)CCCCCC(=O)Oc1ccc2nc3ccc(=O)cc-3oc2c1)OCCCCCCCCCC` (racemic) [Example 20, 1,2-0-Didecyl-rac-glycero-3-pimelic acid resorufin ester]: the blank in data set [1] is recorded as 1.3-2.0 ΔmE/min. Further, the “lipase sensitivity (activity 100 U/l)” value with lipase (EC 3.1.1.3) [3] was 9.8 ΔmE/min. Moreover, in data set [2], the “esterase sensitivity (activity 20,000 U/l)” value was 48.7 ΔmE/min.
As for `CCCCCCCCCCCCOCC(COC(=O)CCCCCCCC(=O)Oc1ccc2nc3ccc(=O)cc-3oc2c1)OCCCCCCCCCCCC` (racemic) [Example 21, 1,2-0-Dilauryl-rac-glycero-3-azelaic acid resorufin ester], the blank in data set [1] is 9.8-11.9 ΔmE/min. Further, the “lipase sensitivity (activity 100 U/l)” value in the data set with lipase (EC 3.1.1.3) [3] was 13.2 ΔmE/min. The “esterase sensitivity (activity 20,000 U/l)” value in data set [2] was 9.5 ΔmE/min.
As to `CCCCCCCCCCCCOCC(COC(=O)CCCCCCCCCCCCC(=O)Oc1ccc2nc3ccc(=O)cc-3oc2c1C)OCCCCCCCCCCCC` (racemic) [Example 28, 1,2-0-Dilauryl-rac-glycero-3-tetradecandiacid (6-methylresorufin) ester], in the data set with lipase (EC 3.1.1.3) [3] (setting [6]), the Lipase sensitivity is 23.6 mE/min per 100 U/1. The blank in data set [4] (setting [6]) was determined as 0.2 mE/min. Further, the Esterase sensitivity in data set [2] was 0.7 mE/min.
In the data set on lipase (EC 3.1.1.3) [5] (setting [7]), `CCCCCCCCCCCCOCC(COC(=O)CCCC(=O)Oc1ccc2nc3ccc(=O)cc-3oc2c1C)OCCCCCCCCCCCC` (racemic) [Example 29, 1,2-0-Dilauryl-rac-qlycero-3-glutaric-acid (6-methyl-resorufin)-ester] came in with a Lipase sensitivity of 28 mE/min per 100 U/l. In data set [4] (setting [7]), this compound displayed a blank of 0.4 mE/min.
Compound `CCCCCCCCCCCCOCC(COC(=O)CCCC(=O)Oc1ccc2c(C)cc(=O)oc2c1)OCCCCCCCCCCCC` (racemic) [Example 31, 1,2-0-Dilauryl-rac-glycero-3-glutaric acid-(4-methylumbelliferyl)-ester] showed a Lipase sensitivity in the data set with lipase (EC 3.1.1.3) [5] (setting [8]) of 28 mE/min per 100 U/1. Further, the blank in data set [4] (setting [8]) is reported as 0.4 mE/min.
As for `CCCCCCCCCCCCOCC(COC(=O)CCCC(=O)Sc1ccc([N+](=O)[O-])cc1)OCCCCCCCCCCCC` (racemic) [Example 32, 1,2-0-Dilauryl-rac-glycero-3-qlutaric acid-(p-nitrothiophenyl)-ester], the Lipase sensitivity in the data set with lipase (EC 3.1.1.3) [5] (CHES reagent pH 8.3, 405 nm) was 12.2 mE/min per 100 U/1. Also, the blank in data set [4] (CHES reagent pH 8.3, 405 nm) is given as 0.3 mE/min.
Consider `CCCCCCCCCCCCCCCCC(COCC(COC(=O)CCCC(=O)Oc1ccc2nc3ccc(=O)cc-3oc2c1C)OC)OC` (racemic) [Example 33, 1-0-(2-Methoxy-octadecyl)-2-0-methyl-rac-glycero-3-glutaric acid-(6-methylresorufin) ester], for which the Lipase sensitivity with lipase (EC 3.1.1.3) [3] (setting [6]) stood at 19.0 mE/min per 100 U/1. This compound came in with a blank in data set [4] (setting [6]) of 8.4 mE/min. In addition, the Esterase sensitivity in data set [2] amounted to 25.3 mE/min.
With `CCCCCCCCCCCCOCC(COC(=O)CCC(=O)Oc1ccc2nc3ccc(=O)cc-3oc2c1)OCCCCCCCCCCCC` (racemic) [Example 34, 1,2-0-Dilauryl-rac-glycero-3-succinic acid resorufin ester], in the data set with lipase (EC 3.1.1.3) [3] (setting [6]), the Lipase sensitivity was determined as 8.7 mE/min per 100 U/1.
In turn, `CCCCCCCCCCCCOCC(CSC(=O)CCCC(=O)Oc1ccc2nc3ccc(=O)cc-3oc2c1C)OCCCCCCCCCCCC` (racemic) [Example 36, 1,2-0-Dilauryl-rac-3-thioglycero-3-S-glutaric acid (6-methylresorufin) ester] came in with a Lipase sensitivity in the data set with lipase (EC 3.1.1.3) [3] (setting [6]) of 4.1 mE/min per 100 U/1. This compound also displayed an Esterase sensitivity in data set [2] of 1.3 mE/min.
In the data set on lipase (EC 3.1.1.3) [3] (emulsion prepared as in Example 22, no lipase activity printed), `CCCCCCCCCCCCSCC(COC(=O)CCCC(=O)Oc1ccc2nc3ccc(=O)cc-3oc2c1C)SCCCCCCCCCCCC` (racemic) [Example 37, 1,2-S-Dilauryl-rac-1,2-dithioglycero-3-glutaric acid (6-methylresorufin) ester] yielded a Lipase sensivity of 24 mE/min. The same compound displayed a blank in data set [4] (setting [6]) of 3 mE/min. The Esterase sensitivity in data set [2] is given as 3.4 mE/min.
As for `CCCCCCCCCCCCCCCCOC[C@H](COC(=O)CCCC(=O)Oc1ccc2nc3ccc(=O)cc-3oc2c1)OCCCCCCCCCCCCCCCC` [Example 11, 1,2-O-Dihexadecyl-sn-glycero-3-glutaric acid resorufin ester], the blank in data set [1] was 0.1 ΔmE/min. For the same compound, in the data set with lipase (EC 3.1.1.3) [3], the “lipase sensitivity (activity 100 U/l)” value is 0.97 ΔmE/min. Moreover, the “esterase sensitivity (activity 20,000 U/l)” value in data set [2] is 1.8 ΔmE/min.
Compound `CCCCCCCCCCCCCCCCC(COC(=O)CCCC(=O)Oc1ccc2nc3ccc(=O)cc-3oc2c1C)OCCCCCCCCCCCC` (stereo not shown) [Example 35] returned a Lipase sensitivity in the data set with lipase (EC 3.1.1.3) [3] (setting [6]) of 25.5 mE/min per 100 U/1. In data set [2], this compound returned an Esterase sensitivity of 1.0 mE/min.
